Laboratory results published in US20060052297A1, “Method of up-regulating tumor antigen expression using thymalfasin” (priority 2002, published 2006).

Columns and labels:
[1] = Safety of thymalfasin in humans; format: in vivo, human
Protocol: (§1) TLP expression-enhancing amounts of thymalfasin peptide can be determined by routine dose-titration experiments. Up-regulation of TLP can be achieved in vivo by administration of between 2 μg/kg and 6 mg/kg body weight of thymalfasin, preferably between 20 μg/kg and 200 μg/kg.

[2] = Safety of thymalfasin in rats; format: in vivo, rat
Protocol: as §1

[3] = subcutaneously injected; Rost, et al., 1998; cited from earlier work

## Ac-SDAAVDTSSEITTKDLKEKKEVVEEAEN-OH [thymalfasin]
[1]
  dose found to be safe: ≤ 16 mg/dose/day
[2]
  dose found to be safe: ≤ 6 mg/kg/day
[3]
  plasma half-life: about 2 hours
